In patent US7863289B2, “Compounds and methods for kinase modulation, and indications therefor” (Plexxikon, Inc., priority 2006, dated 2011):

Columns and labels:
Type in all cases: biochemical
Fms = Fms (Homo sapiens, UniProt P07333); test: Kinase activity assay, Fms; details: under the test conditions employed; read-out: activity toward kinase Fms, IC50
Text: (§1) Assays for the activity of kinases, including, but not limited to, B-Raf, B-Raf V600E, B-Raf […] and c-Raf-1 are known in the art, for example as described in U.S. patent application Ser. No. 11/473,347 (see Iso, PCT publication WO2007002433), the disclosure of which is hereby incorporated by reference in its entirety.

B-Raf = B-Raf (Homo sapiens, UniProt P15056); test: Kinase activity assay, B-Raf; details: under the test conditions employed; read-out: activity toward kinase B-Raf, IC50
Chain of B-Raf (P15056 whole entry): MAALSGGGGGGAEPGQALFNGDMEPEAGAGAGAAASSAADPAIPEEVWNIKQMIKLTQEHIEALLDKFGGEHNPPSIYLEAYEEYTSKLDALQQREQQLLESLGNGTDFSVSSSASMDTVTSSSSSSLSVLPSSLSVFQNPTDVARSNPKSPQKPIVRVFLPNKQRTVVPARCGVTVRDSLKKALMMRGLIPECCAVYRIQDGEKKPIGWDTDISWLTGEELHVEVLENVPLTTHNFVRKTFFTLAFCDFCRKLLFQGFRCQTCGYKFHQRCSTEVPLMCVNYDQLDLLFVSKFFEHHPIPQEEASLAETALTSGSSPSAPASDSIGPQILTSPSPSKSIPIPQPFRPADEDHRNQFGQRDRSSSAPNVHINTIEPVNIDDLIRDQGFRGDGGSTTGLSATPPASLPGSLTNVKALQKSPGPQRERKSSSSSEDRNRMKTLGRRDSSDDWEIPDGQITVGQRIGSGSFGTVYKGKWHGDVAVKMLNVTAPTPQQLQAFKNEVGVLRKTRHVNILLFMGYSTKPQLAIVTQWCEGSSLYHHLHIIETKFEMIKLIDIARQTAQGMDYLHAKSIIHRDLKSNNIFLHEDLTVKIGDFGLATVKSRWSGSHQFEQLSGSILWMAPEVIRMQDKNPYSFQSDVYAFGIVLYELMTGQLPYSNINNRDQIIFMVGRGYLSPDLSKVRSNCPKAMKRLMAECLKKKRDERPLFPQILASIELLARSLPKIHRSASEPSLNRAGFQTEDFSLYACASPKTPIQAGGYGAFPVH
Text: as §1

Src = Src (Homo sapiens, UniProt P12931); test: Kinase activity assay, Src; details: under the test conditions employed; read-out: activity toward kinase Src, IC50
Chain of Src (P12931 whole entry): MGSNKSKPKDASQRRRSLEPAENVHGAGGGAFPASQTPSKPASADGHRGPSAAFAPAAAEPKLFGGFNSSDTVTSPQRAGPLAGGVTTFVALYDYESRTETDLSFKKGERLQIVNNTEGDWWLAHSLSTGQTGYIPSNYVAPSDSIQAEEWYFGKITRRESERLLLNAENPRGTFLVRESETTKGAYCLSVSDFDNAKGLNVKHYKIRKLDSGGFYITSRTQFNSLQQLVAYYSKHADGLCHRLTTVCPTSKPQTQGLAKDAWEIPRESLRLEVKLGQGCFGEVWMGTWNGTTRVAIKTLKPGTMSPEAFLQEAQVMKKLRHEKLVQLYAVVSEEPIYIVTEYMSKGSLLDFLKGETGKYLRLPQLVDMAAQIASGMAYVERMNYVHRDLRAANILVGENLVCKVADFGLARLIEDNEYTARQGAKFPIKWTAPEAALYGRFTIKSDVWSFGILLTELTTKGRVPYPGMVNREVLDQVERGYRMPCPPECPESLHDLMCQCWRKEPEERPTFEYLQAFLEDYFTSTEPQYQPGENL
Text: as §1

B-Raf V600E/T529I = B-Raf V600E/T529I (Homo sapiens, UniProt P15056, T529I/V600E); test: Kinase activity assay, B-Raf V600E/T529I; details: under the test conditions employed; read-out: activity toward kinase B-Raf V600E/T529I, IC50
Chain of B-Raf V600E/T529I (P15056 whole entry T529I/V600E): as the sequence (P15056 whole entry) above, with T529I, V600E counted along it
Text: as §1

Kdr = Kdr (Homo sapiens, UniProt P35968); test: Kinase activity assay, Kdr; details: under the test conditions employed; read-out: activity toward kinase Kdr, IC50
Chain of Kdr (P35968 20-1356): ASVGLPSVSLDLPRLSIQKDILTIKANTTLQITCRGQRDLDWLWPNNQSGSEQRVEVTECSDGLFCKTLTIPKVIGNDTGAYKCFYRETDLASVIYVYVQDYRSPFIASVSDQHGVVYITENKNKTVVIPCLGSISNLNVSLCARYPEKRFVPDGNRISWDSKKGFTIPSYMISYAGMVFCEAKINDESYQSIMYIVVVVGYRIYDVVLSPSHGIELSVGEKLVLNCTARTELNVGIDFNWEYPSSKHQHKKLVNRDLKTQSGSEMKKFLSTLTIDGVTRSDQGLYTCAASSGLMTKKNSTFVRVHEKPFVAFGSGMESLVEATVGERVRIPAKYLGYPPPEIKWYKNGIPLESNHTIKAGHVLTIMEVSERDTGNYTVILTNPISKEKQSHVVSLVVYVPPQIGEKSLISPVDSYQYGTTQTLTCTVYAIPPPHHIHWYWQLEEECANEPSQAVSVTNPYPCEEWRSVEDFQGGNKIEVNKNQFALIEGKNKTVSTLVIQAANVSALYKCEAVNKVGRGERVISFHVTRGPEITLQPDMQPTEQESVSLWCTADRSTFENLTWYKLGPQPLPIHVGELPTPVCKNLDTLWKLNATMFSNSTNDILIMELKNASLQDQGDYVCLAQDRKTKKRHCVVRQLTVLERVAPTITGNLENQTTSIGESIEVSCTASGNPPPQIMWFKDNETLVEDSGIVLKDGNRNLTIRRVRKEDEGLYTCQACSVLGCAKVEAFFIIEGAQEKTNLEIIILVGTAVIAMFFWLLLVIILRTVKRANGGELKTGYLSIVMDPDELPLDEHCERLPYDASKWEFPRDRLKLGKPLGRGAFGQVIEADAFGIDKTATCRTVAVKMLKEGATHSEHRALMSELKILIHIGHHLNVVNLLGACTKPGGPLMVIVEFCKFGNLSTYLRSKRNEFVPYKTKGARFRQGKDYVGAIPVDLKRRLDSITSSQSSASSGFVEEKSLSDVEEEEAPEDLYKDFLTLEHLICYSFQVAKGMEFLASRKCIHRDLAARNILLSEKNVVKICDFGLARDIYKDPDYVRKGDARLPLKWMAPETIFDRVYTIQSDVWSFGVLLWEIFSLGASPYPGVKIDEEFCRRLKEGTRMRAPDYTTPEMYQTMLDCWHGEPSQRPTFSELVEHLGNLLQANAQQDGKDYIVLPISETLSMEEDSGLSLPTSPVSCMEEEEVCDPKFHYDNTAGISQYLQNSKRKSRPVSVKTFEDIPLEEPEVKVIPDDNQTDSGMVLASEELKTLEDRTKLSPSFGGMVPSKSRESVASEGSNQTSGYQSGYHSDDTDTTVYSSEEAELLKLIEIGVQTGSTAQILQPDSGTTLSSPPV
Text: as §1

Kit = Kit (Homo sapiens, UniProt P10721); test: Kinase activity assay, Kit; details: under the test conditions employed; read-out: activity toward kinase Kit, IC50
Text: as §1

c-Raf-1 = c-Raf-1 (Homo sapiens, UniProt P04049); test: Kinase activity assay, c-Raf-1; details: under the test conditions employed; read-out: activity toward kinase c-Raf-1, IC50
Chain of c-Raf-1 (P04049 whole entry): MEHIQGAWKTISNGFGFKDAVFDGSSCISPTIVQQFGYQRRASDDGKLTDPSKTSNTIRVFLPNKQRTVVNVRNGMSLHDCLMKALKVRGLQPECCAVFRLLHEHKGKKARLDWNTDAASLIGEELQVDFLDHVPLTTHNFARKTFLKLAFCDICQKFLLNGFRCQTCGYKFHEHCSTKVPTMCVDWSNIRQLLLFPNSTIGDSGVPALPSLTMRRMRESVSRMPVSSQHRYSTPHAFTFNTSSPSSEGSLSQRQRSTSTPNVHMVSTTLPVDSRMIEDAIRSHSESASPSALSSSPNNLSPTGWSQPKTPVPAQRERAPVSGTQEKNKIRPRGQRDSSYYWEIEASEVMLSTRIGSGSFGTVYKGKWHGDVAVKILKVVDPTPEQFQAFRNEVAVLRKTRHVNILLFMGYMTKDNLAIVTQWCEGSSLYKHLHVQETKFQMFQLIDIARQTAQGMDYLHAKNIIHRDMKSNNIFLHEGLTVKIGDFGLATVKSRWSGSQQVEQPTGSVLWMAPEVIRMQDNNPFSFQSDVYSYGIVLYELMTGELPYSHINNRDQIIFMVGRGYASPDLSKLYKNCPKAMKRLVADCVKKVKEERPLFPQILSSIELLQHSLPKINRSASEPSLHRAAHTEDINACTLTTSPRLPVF
Text: as §1

B-Raf V600E = B-Raf V600E (Homo sapiens, UniProt P15056, V600E); test: Kinase activity assay, B-Raf V600E; details: under the test conditions employed; read-out: activity toward kinase B-Raf V600E, IC50
Chain of B-Raf V600E (P15056 whole entry V600E): as the sequence (P15056 whole entry) above, with V600E counted along it
Text: as §1

Btk = Btk (Homo sapiens, UniProt Q06187); test: Kinase activity assay, Btk; details: under the test conditions employed; read-out: activity toward kinase Btk, IC50
Chain of Btk (Q06187 whole entry): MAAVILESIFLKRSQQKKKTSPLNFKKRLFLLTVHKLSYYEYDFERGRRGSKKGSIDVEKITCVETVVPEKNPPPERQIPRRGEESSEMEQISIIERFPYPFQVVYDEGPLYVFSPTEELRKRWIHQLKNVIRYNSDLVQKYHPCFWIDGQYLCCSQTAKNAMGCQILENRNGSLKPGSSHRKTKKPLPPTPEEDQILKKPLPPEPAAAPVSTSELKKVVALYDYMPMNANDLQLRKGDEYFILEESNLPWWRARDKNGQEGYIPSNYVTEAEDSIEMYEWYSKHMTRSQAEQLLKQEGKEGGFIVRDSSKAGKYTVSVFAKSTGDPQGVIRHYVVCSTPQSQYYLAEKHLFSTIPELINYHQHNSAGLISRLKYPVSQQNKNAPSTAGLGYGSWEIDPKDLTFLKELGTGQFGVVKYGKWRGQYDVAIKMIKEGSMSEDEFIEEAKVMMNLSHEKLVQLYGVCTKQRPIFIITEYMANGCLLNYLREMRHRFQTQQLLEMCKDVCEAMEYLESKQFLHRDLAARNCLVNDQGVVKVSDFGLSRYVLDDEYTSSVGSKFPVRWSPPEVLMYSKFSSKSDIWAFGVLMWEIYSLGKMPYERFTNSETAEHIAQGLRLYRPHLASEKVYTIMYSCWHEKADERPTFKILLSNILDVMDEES
Text: as §1

Flt1 = Flt1 (Homo sapiens, UniProt P17948); test: Kinase activity assay, Flt1; details: under the test conditions employed; read-out: activity toward kinase Flt1, IC50
Text: as §1

TEC = target: T1, TEC (Homo sapiens, UniProt P42680); test: Kinase activity assay, TEC; details: under the test conditions employed; read-out: activity toward kinase TEC, IC50
T1 sequence (P42680 1-631): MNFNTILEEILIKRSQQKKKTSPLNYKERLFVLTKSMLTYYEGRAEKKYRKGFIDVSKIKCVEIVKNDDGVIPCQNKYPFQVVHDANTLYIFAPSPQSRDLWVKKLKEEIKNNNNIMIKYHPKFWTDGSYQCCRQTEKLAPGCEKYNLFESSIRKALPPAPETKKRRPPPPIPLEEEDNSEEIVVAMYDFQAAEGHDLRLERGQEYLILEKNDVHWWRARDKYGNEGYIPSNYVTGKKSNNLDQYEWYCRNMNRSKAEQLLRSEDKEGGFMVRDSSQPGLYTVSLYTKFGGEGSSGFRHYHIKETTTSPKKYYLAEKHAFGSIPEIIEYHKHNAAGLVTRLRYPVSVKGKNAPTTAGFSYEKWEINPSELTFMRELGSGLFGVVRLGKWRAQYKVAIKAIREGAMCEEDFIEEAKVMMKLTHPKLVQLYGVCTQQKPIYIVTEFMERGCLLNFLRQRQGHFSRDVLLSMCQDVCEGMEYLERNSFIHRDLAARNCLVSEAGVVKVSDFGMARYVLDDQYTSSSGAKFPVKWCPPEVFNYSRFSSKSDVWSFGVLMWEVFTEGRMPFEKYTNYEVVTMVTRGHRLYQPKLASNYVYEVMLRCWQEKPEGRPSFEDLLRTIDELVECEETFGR
Text: as §1

Jnk1 = Jnk1 (Homo sapiens, UniProt P45983); test: Kinase activity assay, Jnk1; details: under the test conditions employed; read-out: activity toward kinase Jnk1, IC50
Chain of Jnk1 (P45983 whole entry): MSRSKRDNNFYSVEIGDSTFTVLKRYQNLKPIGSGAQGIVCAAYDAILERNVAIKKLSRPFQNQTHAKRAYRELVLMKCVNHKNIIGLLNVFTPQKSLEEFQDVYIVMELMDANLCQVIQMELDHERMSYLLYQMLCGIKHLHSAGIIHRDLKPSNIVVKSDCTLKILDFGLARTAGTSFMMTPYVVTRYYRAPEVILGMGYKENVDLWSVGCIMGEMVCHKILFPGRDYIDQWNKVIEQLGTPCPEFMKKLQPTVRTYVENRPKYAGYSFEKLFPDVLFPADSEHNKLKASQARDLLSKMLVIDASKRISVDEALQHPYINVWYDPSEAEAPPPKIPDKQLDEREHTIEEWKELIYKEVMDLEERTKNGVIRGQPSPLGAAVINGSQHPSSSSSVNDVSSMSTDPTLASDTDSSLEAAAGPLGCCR
Text: as §1

HGK = HGK (Homo sapiens, UniProt O95819); test: Kinase activity assay, HGK; details: under the test conditions employed; read-out: activity toward kinase HGK, IC50
Text: as §1

Row | Structure (SMILES) | IC50 (Fms) | IC50 (B-Raf) | IC50 (Src) | IC50 (B-Raf V600E/T529I) | IC50 (Kdr) | IC50 (Kit) | IC50 (c-Raf-1) | IC50 (B-Raf V600E) | IC50 (Btk) | IC50 (Flt1) | IC50 (TEC) | IC50 (Jnk1) | IC50 (HGK)
1 | CC(C)c1ccc(S(=O)(=O)Nc2ccc(F)c(C(=O)c3c[nH]c4ncc(-c5cnn(C)c5)cc34)c2F)cc1 [Compound P-0022, N-{2,4-Difluoro-3-[5-(1-methyl-1H-pyrazol-4-yl)-1H-pyrrolo[2,3-b]pyridine-3-carbonyl]-phenyl}-4-isopropyl-benzenesulfonamide] | ≤ 10 µM | ≤ 10 µM | ≤ 10 µM |  | ≤ 10 µM | ≤ 10 µM | ≤ 10 µM | ≤ 10 µM | ≤ 10 µM |  |  |  | 
2 | CCCc1ccc(S(=O)(=O)Nc2ccc(F)c(C(=O)c3c[nH]c4ncc(-c5ncc(C)[nH]5)cc34)c2F)cc1 [Compound P-0023, N-{2,4-Difluoro-3-[5-(5-methyl-1H-imidazol-2-yl)-1H-pyrrolo[2,3-b]pyridine-3-carbonyl]-phenyl}-4-propyl-benzenesulfonamide] | ≤ 10 µM | ≤ 10 µM | ≤ 10 µM |  | ≤ 10 µM | ≤ 10 µM | ≤ 10 µM | ≤ 10 µM | ≤ 10 µM |  |  |  | 
3 | Cc1cnc(-c2cnc3[nH]cc(C(=O)c4c(F)ccc(NS(=O)(=O)c5cccc(OC(F)F)c5)c4F)c3c2)[nH]1 [Compound P-0024, 3-Difluoromethoxy-N-{2,4-difluoro-3-[5-(5-methyl-1H-imidazol-2-yl)-1H-pyrrolo[2,3-b]pyridine-3-carbonyl]-phenyl}-benzenesulfonamide] | ≤ 10 µM | ≤ 10 µM | ≤ 10 µM |  | ≤ 10 µM | ≤ 10 µM |  | ≤ 10 µM | ≤ 10 µM |  |  |  | 
4 | Cc1cnc(-c2cnc3[nH]cc(C(=O)c4c(F)ccc(NS(=O)(=O)c5ccc(C(F)(F)F)cc5)c4F)c3c2)[nH]1 [Compound P-0025, N-{2,4-Difluoro-3-[5-(5-methyl-1H-imidazol-2-yl)-1H-pyrrolo[2,3-b]pyridine-3-carbonyl]-phenyl}-4-trifluoromethyl-benzenesulfonamide] |  | ≤ 10 µM | ≤ 10 µM |  | ≤ 10 µM | ≤ 10 µM | ≤ 10 µM | ≤ 10 µM |  | ≤ 10 µM |  | ≤ 10 µM | 
5 | CCCc1ccc(S(=O)(=O)Nc2ccc(F)c(C(=O)c3c[nH]c4ncc(-c5nccn5C)cc34)c2F)cc1 [Compound P-0026, N-{2,4-Difluoro-3-[5-(1-methyl-1H-imidazol-2-yl)-1H-pyrrolo[2,3-b]pyridine-3-carbonyl]-phenyl}-4-propyl-benzenesulfonamide] |  | ≤ 10 µM | ≤ 10 µM |  | ≤ 10 µM | ≤ 10 µM |  |  |  | ≤ 10 µM |  |  | 
6 | N#Cc1cnc2[nH]cc(C(=O)c3c(F)ccc(NS(=O)(=O)c4ccc(C(F)(F)F)cc4)c3F)c2c1 [Compound P-0031, N-[3-(5-Cyano-1H-pyrrolo[2,3-b]pyridine-3-carbonyl)-2,4-difluoro-phenyl]-4-trifluoromethyl-benzenesulfonamide] |  | ≤ 10 µM | ≤ 10 µM |  |  |  | ≤ 10 µM | ≤ 10 µM |  | ≤ 10 µM |  |  | 

The remaining lines, values ahead:

Row | IC50 (Fms) | IC50 (B-Raf) | IC50 (Src) | IC50 (B-Raf V600E/T529I) | IC50 (Kdr) | IC50 (Kit) | IC50 (c-Raf-1) | IC50 (B-Raf V600E) | IC50 (Btk) | IC50 (Flt1) | IC50 (TEC) | IC50 (Jnk1) | IC50 (HGK) | Structure (SMILES)
7 | ≤ 10 µM | ≤ 10 µM | ≤ 10 µM | ≤ 10 µM | ≤ 10 µM | ≤ 10 µM | ≤ 10 µM | ≤ 10 µM |  |  |  |  |  | O=C(c1c(F)ccc(NS(=O)(=O)c2ccc(-c3cnco3)s2)c1F)c1c[nH]c2ncc(Cl)cc12 [Compound P-0003, 5-Oxazol-5-yl-thiophene-2-sulfonic acid [3-(5-chloro-1H-pyrrolo[2,3-b]pyridine-3-carbonyl)-2,4-difluoro-phenyl]-amide]
8 | ≤ 10 µM | ≤ 10 µM | ≤ 10 µM | ≤ 10 µM | ≤ 10 µM | ≤ 10 µM | ≤ 10 µM | ≤ 10 µM |  |  |  |  |  | O=C(c1c(F)ccc(NS(=O)(=O)c2ccc3oc(=O)ccc3c2)c1F)c1c[nH]c2ncc(Cl)cc12 [Compound P-0005, 2-Oxo-2H-chromene-6-sulfonic acid [3-(5-chloro-1H-pyrrolo[2,3-b]pyridine-3-carbonyl)-2,4-difluoro-phenyl]-amide]
9 | ≤ 10 µM | ≤ 10 µM | ≤ 10 µM | ≤ 10 µM |  | ≤ 10 µM | ≤ 10 µM | ≤ 10 µM |  |  |  |  |  | O=C(c1c(F)ccc(NS(=O)(=O)c2ccc(-c3ccno3)s2)c1F)c1c[nH]c2ncc(Cl)cc12 [Compound P-0006, 5-Isoxazol-5-yl-thiophene-2-sulfonic acid [3-(5-chloro-1H-pyrrolo[2,3-b]pyridine-3-carbonyl)-2,4-difluoro-phenyl]-amide]
10 | ≤ 10 µM | ≤ 10 µM | ≤ 10 µM |  | ≤ 10 µM | ≤ 10 µM | ≤ 10 µM | ≤ 10 µM | ≤ 10 µM |  |  |  |  | O=C(c1c(F)ccc(NS(=O)(=O)c2ccc3nsnc3c2)c1F)c1c[nH]c2ncc(Cl)cc12 [Compound P-0013, Benzo[1,2,5]thiadiazoe-5-sulfonic acid [3-(5-chloro-1H-pyrrolo[2,3-b]pyridine-3-carbonyl)-2,4-difluoro-phenyl]-amide]
11 | ≤ 10 µM | ≤ 10 µM | ≤ 10 µM |  | ≤ 10 µM | ≤ 10 µM | ≤ 10 µM | ≤ 10 µM |  | ≤ 10 µM | ≤ 10 µM |  |  | O=C(c1c(F)ccc(NS(=O)(=O)c2cccc(OC(F)F)c2)c1F)c1c[nH]c2ncc(Cl)cc12 [Compound P-0016, N-[3-(5-Chloro-1H-pyrrolo[2,3-b]pyridine-3-carbonyl)-2,4-difluoro-phenyl]-3-difluoromethoxy-benzenesulfonamide]
12 |  | ≤ 10 µM | ≤ 10 µM |  | ≤ 10 µM | ≤ 10 µM | ≤ 10 µM | ≤ 10 µM |  |  |  | ≤ 10 µM |  | Cc1c[nH]c(-c2cnc3[nH]cc(C(=O)c4c(F)ccc(NS(=O)(=O)c5ccc(C(C)C)cc5)c4F)c3c2)n1 [Compound P-0019, N-{2,4-Difluoro-3-[5-(4-methyl-1H-imidazol-2-yl)-1H-pyrrolo[2,3-b]pyridine-3-carbonyl]-phenyl}-4-isopropyl-benzenesulfonamide]
13 | ≤ 10 µM | ≤ 10 µM | ≤ 10 µM |  | ≤ 10 µM | ≤ 10 µM | ≤ 10 µM | ≤ 10 µM | ≤ 10 µM | ≤ 10 µM |  | ≤ 10 µM | ≤ 10 µM | Cn1cc(-c2cnc3[nH]cc(C(=O)c4c(F)ccc(NS(=O)(=O)c5cccc(OC(F)F)c5)c4F)c3c2)cn1 [Compound P-0020]
14 | ≤ 10 µM | ≤ 10 µM | ≤ 10 µM |  | ≤ 10 µM | ≤ 10 µM | ≤ 10 µM | ≤ 10 µM | ≤ 10 µM |  |  |  |  | CCCc1ccc(S(=O)(=O)Nc2ccc(F)c(C(=O)c3c[nH]c4ncc(-c5cnn(C)c5)cc34)c2F)cc1 [Compound P-0021, N-{2,4-Difluoro-3-[5-(1-methyl-1H-pyrazol-4-yl)-1H-pyrrolo[2,3-b]pyridine-3-carbonyl]-phenyl}-4-propyl-benzenesulfonamide]
